The supplement of paper PMC11451515

System: P12-Ichikawa
Assay: cell viability relative to DMSO control; higher = less cytotoxic
Conditions: 48 h
In short: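 Viability values are per-plate percentages of DMSO wells, with background from cell-free wells. Library compounds in DMSO were pin-dosed, in an 11-point threefold series from 47 μM to 0.79 nM, onto NOMO1 or SEM (500 cells/well) or P12-Ichikawa (1000 cells/well) leukemia cells in 1536-well plates (5 μl). Those cells had been adapted for at least four passages in each medium, and CellTiter-Glo One luminescence was read after 48 h at 37°C.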

[1] = HPLM + 10% dialyzed FBS, 0.000781 µM
[2] = HPLM + 10% dialyzed FBS, 0.00234 µM
[3] = HPLM + 10% dialyzed FBS, 0.00702 µM
[4] = HPLM + 10% dialyzed FBS, 0.0211 µM
[5] = HPLM + 10% dialyzed FBS, 0.0632 µM
[6] = HPLM + 10% dialyzed FBS, 0.19 µM
[7] = HPLM + 10% dialyzed FBS, 0.569 µM
[8] = HPLM + 10% dialyzed FBS, 1.71 µM
[9] = HPLM + 10% dialyzed FBS, 5.12 µM
[10] = HPLM + 10% dialyzed FBS, 15.4 µM
[11] = HPLM + 10% dialyzed FBS, 46.1 µM
[12] = RPMI 5 mM glucose + 10% FBS, 0.000781 µM
[13] = RPMI 5 mM glucose + 10% FBS, 0.00234 µM
[14] = RPMI 5 mM glucose + 10% FBS, 0.00702 µM
[15] = RPMI 5 mM glucose + 10% FBS, 0.0211 µM
[16] = RPMI 5 mM glucose + 10% FBS, 0.0632 µM
[17] = RPMI 5 mM glucose + 10% FBS, 0.19 µM
[18] = RPMI 5 mM glucose + 10% FBS, 0.569 µM
[19] = RPMI 5 mM glucose + 10% FBS, 1.71 µM
[20] = RPMI 5 mM glucose + 10% FBS, 5.12 µM
[21] = RPMI 5 mM glucose + 10% FBS, 15.4 µM
[22] = RPMI 5 mM glucose + 10% FBS, 46.1 µM
[23] = RPMI 5 mM glucose + 10% dialyzed FBS, 0.000781 µM
[24] = RPMI 5 mM glucose + 10% dialyzed FBS, 0.00234 µM
[25] = RPMI 5 mM glucose + 10% dialyzed FBS, 0.00702 µM
[26] = RPMI 5 mM glucose + 10% dialyzed FBS, 0.0211 µM
[27] = RPMI 5 mM glucose + 10% dialyzed FBS, 0.0632 µM
[28] = RPMI 5 mM glucose + 10% dialyzed FBS, 0.19 µM
[29] = RPMI 5 mM glucose + 10% dialyzed FBS, 0.569 µM
[30] = RPMI 5 mM glucose + 10% dialyzed FBS, 1.71 µM
[31] = RPMI 5 mM glucose + 10% dialyzed FBS, 5.12 µM
[32] = RPMI 5 mM glucose + 10% dialyzed FBS, 15.4 µM
[33] = RPMI 5 mM glucose + 10% dialyzed FBS, 46.1 µM

| Compound | cell viability [1] [%] | cell viability [2] [%] | cell viability [3] [%] | cell viability [4] [%] | cell viability [5] [%] | cell viability [6] [%] | cell viability [7] [%] | cell viability [8] [%] | cell viability [9] [%] | cell viability [10] [%] | cell viability [11] [%] | cell viability [12] [%] | cell viability [13] [%] | cell viability [14] [%] | cell viability [15] [%] | cell viability [16] [%] | cell viability [17] [%] | cell viability [18] [%] | cell viability [19] [%] | cell viability [20] [%] | cell viability [21] [%] | cell viability [22] [%] | cell viability [23] [%] | cell viability [24] [%] | cell viability [25] [%] | cell viability [26] [%] | cell viability [27] [%] | cell viability [28] [%] | cell viability [29] [%] | cell viability [30] [%] | cell viability [31] [%] | cell viability [32] [%] | cell viability [33] [%] |
| --- | --- | --- | --- | --- | --- | --- | --- | --- | --- | --- | --- | --- | --- | --- | --- | --- | --- | --- | --- | --- | --- | --- | --- | --- | --- | --- | --- | --- | --- | --- | --- | --- | --- |
| COC(=O)Nc1nc2cc(C(=O)c3ccc(F)cc3)ccc2[nH]1 | 106 | 106 | 100 | 106 | 101 | 104 | 78.2 | 42.1 | 23 | 60.6 | 40.8 | 97 | 99.2 | 101 | 99.1 | 95.2 | 92.7 | 81.8 | 47.2 | 26.6 | 74.2 | 50 | 95.5 | 94.6 | 92.9 | 96.4 | 103 | 91.1 | 82 | 49.3 | 33.9 | 73.9 | 76.7 |
| CC(=O)N[C@@H]1[C@@H](NC(N)=N)\C=C(/O[C@H]1[C@H](O)[C@H](O)CO)C(O)=O | 92.9 | 103 | 106 | 106 | 116 | 116 | 117 | 112 | 112 | 114 | 113 | 93.9 | 108 | 109 | 113 | 123 | 112 | 105 | 113 | 117 | 70.2 | 118 | 88.9 | 107 | 109 | 109 | 113 | 107 | 108 | 112 | 115 | 112 | 100 |
| COc1cc([C@@H](CC(=O)O)c2ccc(C)c(CN3C[C@@H](C)Oc4ccccc4[S+]3(=O)[O-])c2)cc2nnn(C)c12 | 108 | 115 | 114 | 110 | 109 | 110 | 115 | 109 | 96.6 | 12.6 | 10.5 | 115 | 114 | 118 | 106 | 126 | 113 | 121 | 111 | 101 | 84 | 67.4 | 114 | 122 | 115 | 125 | 114 | 112 | 116 | 116 | 104 | 94.7 | 70.7 |
| CCOc1cc2ncc(C#N)c(Nc3ccc(OCc4ccccn4)c(Cl)c3)c2cc1NC(=O)/C=C/CN(C)C | 116 | 124 | 122 | 115 | 117 | 115 | 62.5 | 6.67 | 4.65 | 4.41 | 3.56 | 111 | 125 | 120 | 118 | 120 | 121 | 121 | 11.3 | 6.84 | 5.28 | 5.4 | 119 | 130 | 121 | 122 | 119 | 118 | 122 | 13.5 | 7.04 | 5.08 | 4.99 |
| C[C@]12Cc3cn[nH]c3C[C@@H]1CC[C@@H]1[C@@H]2CC[C@@]2(C)[C@H]1CC[C@]2(C)O | 105 | 116 | 113 | 113 | 125 | 110 | 98.1 | 107 | 101 | 120 | 103 | 108 | 64.2 | 123 | 112 | 120 | 109 | 102 | 106 | 113 | 110 | 93.7 | 97.4 | 112 | 111 | 97.2 | 106 | 111 | 105 | 99.6 | 96.9 | 97.5 | 93.1 |
| Cc1cc(O)c2c(c1)C(=O)c1cccc(O)c1C2=O | 112 | 119 | 119 | 127 | 121 | 137 | 128 | 133 | 122 | 113 | 87.1 | – | – | – | – | – | – | – | – | – | – | – | – | – | – | – | – | – | – | – | – | – | – |
| NC[C@@H]1O[C@H](O[C@H]2[C@@H](O)[C@H](O[C@@H]3[C@@H](O)[C@H](N)C[C@H](N)[C@H]3O[C@H]3O[C@H](CN)[C@@H](O)[C@H](O)[C@H]3N)O[C@@H]2CO)[C@H](N)[C@@H](O)[C@@H]1O.O=S(=O)(O)O.O=S(=O)(O)O.O=S(=O)(O)O | 108 | 96.4 | 108 | 107 | 105 | 107 | 103 | 103 | 107 | 99.5 | 98.3 | 102 | 97.9 | 104 | 98 | 103 | 97.6 | 101 | 98 | 100 | 96.4 | 96 | 105 | 100 | 105 | 103 | 96.8 | 102 | 102 | 93.3 | 94.6 | 97.9 | 93.4 |
| [O-]C(=O)C/1=N/C(=O)NC(=O)N1 | 99 | 97 | 98.3 | 93.3 | 102 | 98 | 90.1 | 91.2 | 81.8 | 80.9 | 83.4 | 92.2 | 97.2 | 90 | 96.6 | 90.2 | 92.3 | 87.6 | 91.8 | 82.6 | 82.1 | 80.2 | 90.6 | 89.4 | 88.4 | 95.8 | 92.8 | 81.8 | 85.3 | 93.2 | 88 | 82.4 | 76.5 |
